The text below walks through data of ChEMBL document CHEMBL1667785, “Synthesis and structure-analgesic activity relationships of a novel series of monospirocyclopiperazinium salts (MSPZ)” (Bioorg Med Chem Lett, 2011).

One test relates to Mus musculus. Description: Analgesic activity in mouse assessed as inhibition of acetic acid-induced writhing at 20 umol/kg, sc administered 30 mins before to acetic acid challenge measured after 5 mins for 10 mins relative to control. In kind it is functional. Also noted: scale not given: the % may be the effect or the level left. For orientation: In writhing tests, fewer writhes than in controls are read as antinociception.

The target of test [1] is Neuronal acetylcholine receptor subunit alpha-7 (Homo sapiens, UniProt P36544). Description: Binding affinity to alpha7 nAChR.
The target in test [2] is Neuronal acetylcholine receptor subunit beta-2 (Homo sapiens, UniProt P17787). Description: Binding affinity to beta2 nAChR.
Neuronal acetylcholine receptor subunit beta-2, sequence (P17787 whole entry): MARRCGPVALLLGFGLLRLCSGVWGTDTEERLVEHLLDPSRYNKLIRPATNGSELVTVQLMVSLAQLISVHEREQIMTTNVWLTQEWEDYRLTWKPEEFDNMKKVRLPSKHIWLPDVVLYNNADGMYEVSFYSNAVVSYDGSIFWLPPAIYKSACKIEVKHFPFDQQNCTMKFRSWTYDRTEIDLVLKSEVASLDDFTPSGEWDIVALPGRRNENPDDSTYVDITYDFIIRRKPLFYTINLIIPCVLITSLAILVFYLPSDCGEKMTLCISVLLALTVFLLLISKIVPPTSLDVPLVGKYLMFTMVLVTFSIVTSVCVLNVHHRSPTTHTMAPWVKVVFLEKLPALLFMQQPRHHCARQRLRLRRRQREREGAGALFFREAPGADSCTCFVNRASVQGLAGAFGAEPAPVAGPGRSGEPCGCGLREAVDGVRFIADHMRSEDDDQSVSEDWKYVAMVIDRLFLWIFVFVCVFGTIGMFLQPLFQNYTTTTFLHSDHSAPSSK

Neuronal acetylcholine receptor subunit alpha-7, sequence (P36544 whole entry): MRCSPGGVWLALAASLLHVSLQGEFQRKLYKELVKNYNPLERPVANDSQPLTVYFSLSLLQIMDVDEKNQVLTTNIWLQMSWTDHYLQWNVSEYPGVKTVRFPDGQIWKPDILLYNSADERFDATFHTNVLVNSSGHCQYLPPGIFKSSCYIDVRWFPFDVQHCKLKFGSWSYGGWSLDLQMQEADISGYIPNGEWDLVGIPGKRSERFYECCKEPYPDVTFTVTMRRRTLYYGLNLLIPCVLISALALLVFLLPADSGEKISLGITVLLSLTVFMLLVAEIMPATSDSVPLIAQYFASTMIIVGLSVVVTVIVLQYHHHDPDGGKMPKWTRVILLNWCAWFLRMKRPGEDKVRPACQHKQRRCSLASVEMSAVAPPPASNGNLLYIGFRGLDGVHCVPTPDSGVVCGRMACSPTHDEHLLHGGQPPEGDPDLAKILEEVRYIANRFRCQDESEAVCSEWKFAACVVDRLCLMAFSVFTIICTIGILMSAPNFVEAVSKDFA

In the case of `Clc1ccccc1N1CC[N+]2(CCc3ccccc32)CC1.[Cl-]`, the Activity in the test on Mus musculus is recorded as 44%.

On to `CCCC[N+]1(CCCC)CCN(c2ccc(OC)cc2)CC1.[Cl-]`, for which the Activity with Mus musculus is recorded as 54%.

Consider `COc1ccccc1N1CC[N+]2(CCc3ccccc32)CC1.[Cl-]`, for which the Activity in the test with Mus musculus is recorded as 39%.

`COc1ccc(N2CC[N+]3(CCCCCC3)CC2)cc1.[Cl-]`: the Activity in the test with Mus musculus was 28%.

Turning to `CC(=O)Nc1cccc(N2CC[N+]3(CCc4ccccc43)CC2)c1.[Cl-]`, the Activity in the test on Mus musculus is recorded as 39%.

On to `COc1ccc(N2CC[N+]3(CCN(CCc4ccccc4)CC3)CC2)cc1.[Cl-]`, for which the Activity in the test on Mus musculus turned out to be 27%.

As for `CS(=O)(=O)[O-].O=[N+]([O-])c1cccc(N2CC[N+]3(CCc4ccccc43)CC2)c1`, the Activity in the test on Mus musculus turned out to be 39%.

As to `COc1cccc(N2CC[N+]3(CCc4ccccc43)CC2)c1.[Cl-]`, the Activity in the test on Mus musculus is 37%.

With `[Cl-].c1ccc(N2CC[N+]3(CCc4ccccc43)CC2)cc1`, the Activity in the test with Mus musculus was determined as 28%.

`COc1ccc(N2CC[N+]3(CCNCC3)CC2)cc1.[Cl-]`: the Activity in the test with Mus musculus is listed as 5%.

Turning to `COc1ccc(N2CC[N+](C)(C)CC2)cc1.[Cl-]`, in the test on Mus musculus, the Activity was found to be 56%.

As for `COc1ccc(N2CC[N+]3(CCOCC3)CC2)cc1.[Cl-]`, the Activity in the test with Mus musculus is given as 41%.

As for `Oc1cccc(N2CC[N+]3(CCc4ccccc43)CC2)c1.[Cl-]`, the Activity with Mus musculus is recorded as 34%.

For the molecule `COc1ccc(N2CC[N+]3(CC2)CCN(c2ccc(OC)cc2)CC3)cc1.[Cl-]`, the Activity with Mus musculus is 17%.

In the case of `COc1ccc(N2CC[N+](C)(Cc3ccccc3)CC2)cc1.[Cl-]`, in the test with Mus musculus, the Activity is 43%.

As for `COc1ccc(N2CC[N+]3(CCc4ccccc43)CC2)cc1.[Cl-]`, the Activity with Mus musculus amounted to 63%.

With `COc1ccc(N2CC[N+]3(CCCC3)CC2)cc1.[Cl-]`, the Activity in the test on Mus musculus worked out at 41%.

As for `COc1ccc(N2CC[N+]3(CCN(C(=O)c4ccccc4)CC3)CC2)cc1.[Cl-]`, the Activity with Mus musculus was found to be 50%.

In the case of `COc1ccc(N2CC[N+]3(CCCCC3)CC2)cc1.[Cl-]`, in the test with Mus musculus, the Activity is reported as 26%.

For the molecule `COc1ccc(N2CC[N+]3(CC2)CC(C)OC(C)C3)cc1.[Cl-]` (centres undefined), the Activity in the test with Mus musculus was determined as 21%.

In the case of `CS(=O)(=O)[O-].O=[N+]([O-])c1ccc(N2CC[N+]3(CCc4ccccc43)CC2)cc1`, the Activity in the test with Mus musculus is recorded as 54%.

As for `COc1ccc(N2CC[N+]3(CCN(C)CC3)CC2)cc1.[Cl-]`, in the test on Mus musculus, the Activity was 32%.

Consider `CC(COc1ccc(/C=C\c2ccccc2)cc1)[N+](C)(C)C` (centres undefined), for which the Ki – broadly, a measure of affinity in units of concentration, obtained from inhibition or displacement – in test [1] came to 0.057 µM; in test [2], 39 µM.
